Test results taken from article PMC9147192, “Small Molecule Arranged Thermal Proximity Coaggregation (smarTPCA)—A Novel Approach to Characterize Protein–Protein Interactions in Living Cells by Similar Isothermal Dose–Responses” (International Journal of Molecular Sciences, 2022).

Experiments:
CANX = biological target: T1, CANX (Homo sapiens, UniProt P27824); assay: TPP-CCR in living HL-60 cells; type: cell-based
T1 construct: endogenous in cells; host or cells: HL-60 (ATCC CCL-240)
T1 sequence (P27824 21-592): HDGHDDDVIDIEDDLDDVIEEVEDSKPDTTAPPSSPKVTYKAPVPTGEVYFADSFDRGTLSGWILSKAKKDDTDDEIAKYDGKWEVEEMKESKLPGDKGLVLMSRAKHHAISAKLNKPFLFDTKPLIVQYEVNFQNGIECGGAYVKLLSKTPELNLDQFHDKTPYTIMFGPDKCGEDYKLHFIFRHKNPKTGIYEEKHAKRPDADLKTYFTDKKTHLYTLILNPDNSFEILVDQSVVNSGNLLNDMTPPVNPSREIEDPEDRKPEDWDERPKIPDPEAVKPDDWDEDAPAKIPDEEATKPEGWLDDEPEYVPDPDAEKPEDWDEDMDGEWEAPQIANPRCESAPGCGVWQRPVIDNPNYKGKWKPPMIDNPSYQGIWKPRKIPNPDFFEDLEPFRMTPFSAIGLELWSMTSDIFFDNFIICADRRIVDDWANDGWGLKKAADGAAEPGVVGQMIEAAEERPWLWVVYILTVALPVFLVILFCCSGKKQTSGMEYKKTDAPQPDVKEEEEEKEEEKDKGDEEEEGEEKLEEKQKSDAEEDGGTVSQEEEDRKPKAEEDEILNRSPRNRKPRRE

VAPA = biological target: T2, VAPA (Homo sapiens, UniProt Q9P0L0); assay: TPP-CCR in living HL-60 cells; type: cell-based
T2 construct: dose–responses (mean over replicates), derived from TPP-CCR experiments in living cells; endogenous in cells; host or cells: HL-60 cells (ATCC No. CCL-240)
T2 sequence (Q9P0L0 1-249): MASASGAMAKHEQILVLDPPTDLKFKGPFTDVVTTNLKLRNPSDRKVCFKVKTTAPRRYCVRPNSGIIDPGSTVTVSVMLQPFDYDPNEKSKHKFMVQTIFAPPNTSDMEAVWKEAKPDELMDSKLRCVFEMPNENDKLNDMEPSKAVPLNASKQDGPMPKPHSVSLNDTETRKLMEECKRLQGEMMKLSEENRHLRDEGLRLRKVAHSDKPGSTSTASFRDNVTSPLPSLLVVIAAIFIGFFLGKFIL

[1] = living HL-60 cells, […] °C, TMT-MS

Cc1cnc(Nc2ccc(F)cc2Cl)nc1-c1c[nH]c(C(=O)N[C@H](CO)c2cccc(Cl)c2)c1 [ERK 11e]
Hill slope (CANX; TPP-CCR, living cells, CANX): 0.80
EC50 (CANX; [1]): 871 nM
Hill slope (CANX) (CANX; [1]): 0.80
Hill slope (VAPA; TPP-CCR, living cells, VAPA): 0.66
EC50 (VAPA; [1]): 1550 nM
Hill slope (VAPA) (VAPA; [1]): 0.66
